Laboratory results from patent publication US11827628B2, “Compositions and methods for inhibition of the JAK pathway” (Rigel Pharmaceuticals, Inc., priority 2005, dated 2023).

Tested on: up-regulation of ICAM-1 (CD54) by IFNγ in A549 lung epithelial cells
Test: A549 Epithelial Line Stimulated with IFNγ (ICAM-1 surface expression, FACS)
Type: cell-based, human
Settings: A549 epithelial line stimulated with IFNγ; ICAM-1 expression by FACS; read-out: IC50, Example 43
Summary of the method: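 ICAM-1 (CD54) flow cytometry on live-gated A549 cells, geometric mean versus dose giving EC50. Cells received IFNγ at 75 ng/mL for 24 h after a 1 h compound pre-treatment spanning 30 μM to 14 nM in medium with 5% FBS and 0.3% DMSO.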

| Molecule | IC50 |
| --- | --- |
| Cc1ccc(Nc2ncc(F)c(Nc3ccc(OC4CCCN(C)C4)c(Cl)c3)n2)cc1S(N)(=O)=O (racemic) [II-3, Racemic N2-(3-aminosulfonyl-4-methylphenyl)-N4-{3-chloro-4-[(1-methylpiperidin-3-yl)oxy]phenyl}-5-fluoro-2,4-pyrimidinediamine] | 11.9 µM |
| N#CCCc1ccc(Nc2nc(Nc3cccc(S(N)(=O)=O)c3)ncc2F)cc1 [III-14, N2-(3-aminosulfonylphenyl)-N4-[4-(cyanoethylene)phenyl]-5-fluoro-2,4-pyrimidinediamine] | 3.6 µM |
| Cc1cc(COc2ccc(Nc3nc(Nc4cc(C)c(F)c(S(N)(=O)=O)c4)ncc3F)cc2)no1 [Compound I-217, N2-(3-Aminosulfonyl-4-fluoro-5-methylphenyl)-5-fluoro-N4-[4-(5-methylisoxazol-3-yl)methyleneoxyphenyl]-2,4-pyrimidinediamine] | 36.6 µM |
| N#CCOc1ccc(Nc2nc(Nc3ccc(Cl)c(S(N)(=O)=O)c3)ncc2F)cc1 [Compound I-21, N2-(3-Aminosulfonyl-4-chlorophenyl)-N4-(4-cyanomethoxy)phenyl-5-fluoro-2,4-pyrimidinediamine] | 22.7 µM |
| Cc1ccc(Nc2ncc(F)c(Nc3ccc(OCC#N)cc3)n2)cc1S(N)(=O)=O [Compound I-20, N2-(3-Aminosulfonyl-4-methyl)phenyl-N4-(4-cyanomethoxy)phenyl-5-fluoro-2,4-pyrimidinediamine] | 6.54 µM |
| Cc1nnc(COc2ccc(Nc3nc(Nc4cccc(S(N)(=O)=O)c4)ncc3F)cc2)o1 [Compound I-277, N2-(3-aminosulfonylphenyl)-5-fluoro-N4-[4-(5-methyl-1,3,4-oxadiazol-2-yl)methyleneoxyphenyl]-2,4-pyrimidinediamine] | 6.91 µM |
| CCN(CC)CCNS(=O)(=O)c1ccc(Nc2ncc(F)c(Nc3ccc(OCc4cc(C)on4)cc3)n2)cc1 [Compound I-246, N2-[4-(2-N,N-Diethylaminoethyl)aminosulfonylphenyl)-5-fluoro-N4-[4-(5-methylisoxazol-3-yl)methyleneoxyphenyl]-2,4-pyrimidinediamine] | 8.88 µM |
| Cc1cc(Nc2nc(Nc3ccc(S(N)(=O)=O)cc3)ncc2F)cc(C)c1OCC#N [Compound I-25, N2-(4-Aminosulfonyl)phenyl-N4-(4-cyanomethoxy-3,5-dimethyl)phenyl-5-fluoro-2,4-pyrimidinediamine] | 25.3 µM |
| NS(=O)(=O)c1cccc(Nc2ncc(F)c(Nc3cccc(CNC(=O)C4CC4)c3)n2)c1 [III-39, N2-(3-aminosulfonyl)phenyl-N4-(3-cyclopropylcarbonylaminomethyl)phenyl-5-fluoro-2,4-pyrimidinediamine] | 4.15 µM |
| N2-[3-Aminosulfonyl-4-(4-methylpiperazin-1-yl)phenyl]-5-fluoro-N4-[2-fluoro-4-(5-methylisoxazol-3-yl)methyleneoxyphenyl]-2,4-pyrimidinediamine [Compound I-251] | 34.9 µM |
| Cc1ccc(Nc2ncc(F)c(Nc3ccc(CCC#N)cc3)n2)cc1S(N)(=O)=O [III-15, N2-(3-Aminosulfonyl-4-methylphenyl)-N4-[4-(cyanoethylene)phenyl]-5-fluoro-2,4-pyrimidinediamine] | 4.66 µM |
| Cc1noc(COc2ccc(Nc3nc(Nc4ccc(S(N)(=O)=O)cc4)ncc3F)cc2)n1 [Compound I-268, N2-(4-Aminosulfonylphenyl)-5-fluoro-N4-(4-[3-methyl-1,2,4-oxadiazol-5-yl]methyleneoxyphenyl)-2,4-pyrimidinediamine] | 5.08 µM |
| Cc1cc(COc2ccc(Nc3nc(Nc4cc(C)c(F)c(S(N)(=O)=O)c4)ncc3F)cc2F)no1 [Compound I-224, N2-(3-Aminosulfonyl-4-fluoro-5-methylphenyl)-5-fluoro-N4-[3-fluoro-4-(5-methylisoxazol-3-yl)methyleneoxyphenyl]-2,4-pyrimidinediamine] | 11.3 µM |
| Cc1nnc(COc2ccc(Nc3nc(Nc4ccc(F)c(S(N)(=O)=O)c4)ncc3F)cc2)o1 [Compound I-278, N2-(3-Aminosulfonyl-4-fluorophenyl)-5-fluoro-N4-[4-(5-methyl-1,3,4-oxadiazol-2-yl)methyleneoxyphenyl]-2,4-pyrimidinediamine] | 11 µM |
| Cc1cc(COc2ccc(Nc3nc(Nc4ccc(C)c(S(N)(=O)=O)c4)ncc3F)cc2C)no1 [Compound I-234, N2-(3-Aminosulfonyl-4-methylphenyl)-5-fluoro-N4-[3-methyl-4-(5-methylisoxazol-3-yl)methyleneoxyphenyl]-2,4-pyrimidinediamine] | 8.16 µM |
| Cc1noc(COc2cccc(Nc3nc(Nc4cccc(S(N)(=O)=O)c4)ncc3F)c2)n1 [Compound I-252, N2-(3-Aminosulfonylphenyl)-5-fluoro-N4-[3-(3-methyl-1,2,4-oxadiazol-5-yl)methyleneoxyphenyl]-2,4-pyrimidinediamine] | 74.2 µM |

Second part, the molecule after the results:

| IC50 | Molecule |
| --- | --- |
| 14.4 µM | Cc1cc(Nc2nc(Nc3ccc(S(N)(=O)=O)cc3)ncc2F)ccc1OCC#N [Compound I-22, N2-(4-Aminosulfonyl)phenyl-N4-(4-cyanomethoxy-3-methyl)phenyl-5-fluoro-2,4-pyrimidinediamine] |
| 8.96 µM | Cc1noc(COc2cccc(Nc3nc(Nc4ccc(C)c(S(N)(=O)=O)c4)ncc3F)c2)n1 [Compound I-254, N2-(3-Aminosulfonyl-4-methylphenyl)-5-fluoro-N4-[3-(3-methyl-1,2,4-oxadiazol-5-yl)methyleneoxyphenyl]-2,4-pyrimidinediamine] |
| 8.37 µM | N#CCc1ccc(Nc2nc(Nc3cccc(S(N)(=O)=O)c3)ncc2F)cc1 [III-4, N2-(3-Aminosulfonyl)phenyl-N4-(4-cyanomethyl)phenyl-5-fluoro-2,4-pyrimidinediamine] |
| 16.7 µM | CCN(CC)CCNS(=O)(=O)c1ccc(Nc2ncc(F)c(Nc3ccc(OCc4cc(C)on4)c(C)c3)n2)cc1 [Compound I-245, N2-[4-(2-N,N-Diethylaminoethyl)aminosulfonylphenyl)-5-fluoro-N4-[3-methyl-4-(5-methylisoxazol-3-yl)methyleneoxyphenyl]-2,4-pyrimidinediamine] |
| 3.48 µM | Cc1ccc(Nc2ncc(F)c(Nc3cc(C)c(OCC#N)c(C)c3)n2)cc1S(N)(=O)=O [Compound I-27, N2-(3-Aminosulfonyl-4-methyl)phenyl-N4-(4-cyanomethoxy-3,5-dimethyl)phenyl-5-fluoro-2,4-pyrimidinediamine] |
| 39.3 µM | CNS(=O)(=O)c1cc(Nc2ncc(F)c(Nc3cccc(OCc4nc(C)no4)c3)n2)ccc1C [Compound I-255, 5-Fluoro-N2-[3-(N-methylaminosulfony)-4-methylphenyl]-N4-[3-(3-methyl-1,2,4-oxadiazol-5-yl)methyleneoxyphenyl]-2,4-pyrimidinediamine] |
| 14.5 µM | N#CCc1ccc(Nc2nc(Nc3ccc(Cl)c(S(N)(=O)=O)c3)ncc2F)cc1 [III-8, N2-(3-Aminosulfonyl-4-chloro)phenyl-N4-(4-cyanomethyl)phenyl-5-fluoro-2,4-pyrimidinediamine] |
| 2.24 µM | Cc1ccc(Nc2ncc(C)c(Nc3ccc(CCC#N)cc3)n2)cc1S(N)(=O)=O [III-11] |
| 8.44 µM | CNS(=O)(=O)c1cc(Nc2ncc(F)c(Nc3ccc(OCc4nc(C)no4)cc3)n2)ccc1C [Compound I-260, 5-Fluoro-N2-[3-N-(methyl)aminosulfonyl-4-methylphenyl)-N4-[4-(3-methyl-1,2,4-oxadiazol-5-yl)methyleneoxyphenyl]-2,4-pyrimidinediamine] |
